# Target: Cyclin-dependent kinase 1 (Homo sapiens, UniProt P06493)
# Assay: Inhibition Assay
# Excerpt: Inhibition assay using CDK1/cyclin B.
# Cyclin-dependent kinase 1, sequence (P06493 whole entry): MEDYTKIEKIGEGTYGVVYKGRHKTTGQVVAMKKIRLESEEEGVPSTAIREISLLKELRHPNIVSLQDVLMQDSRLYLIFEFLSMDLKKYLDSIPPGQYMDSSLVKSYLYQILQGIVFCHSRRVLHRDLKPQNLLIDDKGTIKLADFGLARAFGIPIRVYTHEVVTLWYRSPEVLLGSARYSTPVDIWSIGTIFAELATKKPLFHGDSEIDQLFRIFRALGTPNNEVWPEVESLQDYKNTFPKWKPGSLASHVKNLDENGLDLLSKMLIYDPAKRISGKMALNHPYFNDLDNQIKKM
row,SMILES,IC50 [nM]
1,"CC(C)N1CNc2c(Nc3ccc(Cl)cc3)nc(N3CCCCC3CCO)nc21 (configuration not stated) [2-(2-hydroxyethylpiperidyl)-9-isopropylpurine core C6-substituent, 359]",790
2,"CC(C)N1CNc2c(N(CCN(C)C)Cc3ccccc3)nc(N3CCCCC3CCO)nc21 (configuration not stated) [2-(2-hydroxyethylpiperidyl)-9-isopropylpurine core C6-substituent, 227]",> 10000
3,"COc1ccc(CNc2nc(N3CCC(O)CC3)nc3c2NCN3C(C)C)cc1 [6-(4-methoxybenzylamino) core C2-substituent, 27]",6500
4,"COc1ccc(CNc2nc(NCCCO)nc3c2NCN3C(C)C)cc1 [6-(4-methoxybenzylamino) core C2-substituent, 209]",1200
5,"CC(O)CN(CC(C)O)c1nc(Nc2cccc(Cl)c2)c2c(n1)N(C(C)C)CN2 (configuration not stated) [6-(3-chloroanilino)-9-isopropylpurine core C2-substituent, 305]",350
6,"CC(C)N1CNc2c(Nc3cccc(Cl)c3)nc(NCCO)nc21 [2-(2-hydroxyethylamino)-9-isopropylpurine core C6-substituents, 52]",220
7,"CC(C)N1CNc2c(NCc3ccc4ccccc4c3)nc(N3CCCCC3CCO)nc21 (configuration not stated) [2-(2-hydroxyethylpiperidyl)-9-isopropylpurine core C6-substituent, 226]",1200
8,"COc1ccc(CNc2nc(N(CCN(C)C)Cc3ccccc3)nc3c2NCN3C(C)C)cc1 [6-(4-methoxybenzylamino) core C2-substituent, 40]",5000
9,"CC[C@H](CO)Nc1nc(Nc2cccc(Cl)c2)c2c(n1)N(C(C)C)CN2 [6-(3-chloroanilino)-9-isopropylpurine core C2-substituent, 307]",300
10,"CC(C)[C@H](CO)Nc1nc(Nc2ccc(O)c(C(=O)O)c2)c2c(n1)N(C(C)C)CN2 [2-(1 R-isopropyl-2-hydroxyethylamino)-9-isopropylpurine core C6-substituent, 94]",100
11,"CC(C)N1CNc2c(NCc3cccc(C(F)(F)F)c3)nc(N3CCCCC3CCO)nc21 (configuration not stated) [2-(2-hydroxyethylpiperidyl)-9-isopropylpurine core C6-substituent, 222]",3000
12,"Cc1ccc(CN(c2nc(Nc3cccc(Cl)c3)c3c(n2)N(C(C)C)CN3)[C@@H](O)C(C)C)cc1 [2-((1 R-isopropyl)-2-hydroxyethylamino)-6-(3-chloroanilino)-9-isopropylpurine core C2-substituent, 317]",> 10000
13,"CC(C)C[C@H](CO)Nc1nc(Nc2cccc(Cl)c2)c2c(n1)N(C(C)C)CN2 [6-(3-chloroanilino)-9-isopropylpurine core C2-substituent, 308]",530
14,"COc1ccc(CNc2nc(NCC(O)c3ccccc3)nc3c2NCN3C(C)C)cc1 (configuration not stated) [6-(4-methoxybenzylamino) core C2-substituent, 50]",2800
15,"CC(C)N1CNc2c(Nc3cccc(Cl)c3)nc(N[C@H](CO)C(C)(C)C)nc21 [6-(3-chloroanilino)-9-isopropylpurine core C2-substituent, 61]",2300
16,"CCC(C)[C@@H](CO)Nc1nc(Nc2cccc(Cl)c2)c2c(n1)N(C(C)C)CN2 (some centres not stated) [6-(3-chloroanilino)-9-isopropylpurine core C2-substituent, 62]",500
17,"COc1ccc(CNc2nc(N(CC(C)O)CC(C)O)nc3c2NCN3C(C)C)cc1 (configuration not stated) [6-(4-methoxybenzylamino) core C2-substituent, 16]",240
18,"COc1ccc(CNc2nc(N(CCO)Cc3ccccc3)nc3c2NCN3C(C)C)cc1 [6-(4-methoxybenzylamino) core C2-substituent, 49]",2800
19,CC(C)N1CNc2c(NCCC(c3ccccc3)c3ccccc3)nc(N3CCCCC3CCO)nc21 (configuration not stated),9000
20,"CC(C)[C@H](CO)Nc1nc(Nc2ccc(Cl)c(C(=O)O)c2)c2c(n1)N(C(C)C)CN2 [2-(1 R-isopropyl-2-hydroxyethylamino)-9-isopropylpurine core C6-substituent, 96]",30
21,"COc1ccc(CNc2nc(N3CCN(C)CC3)nc3c2NCN3C(C)C)cc1 [6-(4-methoxybenzylamino) core C2-substituent, 12]",10800
22,"COc1ccc(CNc2nc(N(C)CC(O)c3ccccc3)nc3c2NCN3C(C)C)cc1 (configuration not stated) [6-(4-methoxybenzylamino) core C2-substituent, 37]",1000
23,"CC(C)N1CNc2c(NCc3cccc(I)c3)nc(N3CCCCC3CCO)nc21 (configuration not stated) [2-(2-hydroxyethylpiperidyl)-9-isopropylpurine core C6-substituent, 113]",6000
24,"COc1ccc(CNc2nc(N3CCN(CCO)CC3)nc3c2NCN3C(C)C)cc1 [6-(4-methoxybenzylamino) core C2-substituent, 11]",7000

row,SMILES,IC50 [nM]
1,"CC(C)[C@H](CO)Nc1nc(NCc2cccc(I)c2)c2c(n1)N(C(C)C)CN2 [2-(1 R-isopropyl-2-hydroxyethylamino)-9-isopropylpurine core C6-substituent, 112]",170
2,"COc1ccc(CNc2nc(N3CCCCC3CCO)nc3c2NCN3C(C)C)cc1 (configuration not stated) [6-(4-methoxybenzylamino) core C2-substituent, 10]",210
3,"CC(C)[C@H](CO)Nc1nc(Nc2ccccc2)c2c(n1)N(C(C)C)CN2 [2-(1 R-isopropyl-2-hydroxyethylamino)-9-isopropylpurine core C6-substituent, 78]",240
4,"COc1ccccc1Nc1nc(NCCO)nc2c1NCN2C(C)C [2-(2-hydroxyethylamino)-9-isopropylpurine core C6-substituents, 46]",9000
5,"CC(C)[C@H](CO)Nc1nc(Nc2ccc(Br)cc2)c2c(n1)N(C(C)C)CN2 [2-(1 R-isopropyl-2-hydroxyethylamino)-9-isopropylpurine core C6-substituent, 73]",40
6,"CC(C)N1CNc2c(Nc3cccc(Cl)c3)nc(N(CCO)Cc3ccccc3)nc21 [6-(3-chloroanilino)-9-isopropylpurine core C2-substituent, 302]",5000
7,"CC(C)N1CNc2c(Nc3cccc(Cl)c3)nc(N[C@H](CO)Cc3ccccc3)nc21 [6-(3-chloroanilino)-9-isopropylpurine core C2-substituent, 70]",500
8,"CC(C)N1CNc2c(Nc3ccccc3)nc(N3CCCCC3CCO)nc21 (configuration not stated) [2-(2-hydroxyethylpiperidyl)-9-isopropylpurine core C6-substituent, 220]",130
9,"COc1ccc(CNc2nc(NC3(CO)CCCC3)nc3c2NCN3C(C)C)cc1 [6-(4-methoxybenzylamino) core C2-substituent, 314]",450
10,"CC(C)N1CNc2c(Nc3cccc(Cl)c3)nc(N[C@H](CO)c3ccccc3)nc21 [6-(3-chloroanilino)-9-isopropylpurine core C2-substituent, 59]",800
11,"CC(C)N1CNc2c(Nc3cccc(Cl)c3)nc(N[C@H]3Cc4ccccc4[C@H]3O)nc21 [6-(3-chloroanilino)-9-isopropylpurine core C2-substituent, 69]",5000
12,"CC(C)[C@H](CO)Nc1nc(Nc2ccc(Cl)cc2)c2c(n1)N(C(C)C)CN2 [2-(1 R-isopropyl-2-hydroxyethylamino)-9-isopropylpurine core C6-substituent, 356]",80
13,"CCCCNc1nc(N2CCCCC2CCO)nc2c1NCN2C(C)C (configuration not stated) [2-(2-hydroxyethylpiperidyl)-9-isopropylpurine core C6-substituent, 219]",1300
14,"COc1ccc(CNc2nc(NCCO)nc3c2NCN3C(C)C)cc1 [6-(4-methoxybenzylamino) core C2-substituent, 118]",700
15,"CC(C)N1CNc2c(Nc3ccc4ccccc4c3)nc(NCCO)nc21 [2-(2-hydroxyethylamino)-9-isopropylpurine core C6-substituents, 47]",430
16,"CCN(CCO)c1nc(NCc2ccc(OC)cc2)c2c(n1)N(C(C)C)CN2 [6-(4-methoxybenzylamino) core C2-substituent, 13]",1200
17,"CC(C)N1CNc2c(NCc3ccccc3)nc(N3CCCCC3CCO)nc21 (configuration not stated) [2-(2-hydroxyethylpiperidyl)-9-isopropylpurine core C6-substituent, 212]",160
18,"COc1ccc(CNc2nc(N[C@@H](CO)CC(C)C)nc3c2NCN3C(C)C)cc1 [6-(4-methoxybenzylamino) core C2-substituent, 36]",100
19,"COc1ccc(CNc2nc(NCC(O)CO)nc3c2NCN3C(C)C)cc1 (configuration not stated) [6-(4-methoxybenzylamino) core C2-substituent, 15]",1300
20,"CC(C)N1CNc2c(NCCNc3ccccc3)nc(N3CCCCC3CCO)nc21 (configuration not stated) [2-(2-hydroxyethylpiperidyl)-9-isopropylpurine core C6-substituent, 224]",1500
21,"COc1ccc(CNc2nc(NCC(O)CN)nc3c2NCN3C(C)C)cc1 (configuration not stated) [6-(4-methoxybenzylamino) core C2-substituent, 41]",1600
22,"COc1ccc(CNc2nc(N3CCCCCC3)nc3c2NCN3C(C)C)cc1 [6-(4-methoxybenzylamino) core C2-substituent, 38]",4000
23,"COc1ccc(CNc2nc(N(CCO)CCCO)nc3c2NCN3C(C)C)cc1 [6-(4-methoxybenzylamino) core C2-substituent, 211]",250

# Reference: BindingDB's records for doi:10.1016/S1074-5521(99)80048-9 (University of California Berkeley, 1999)
